PubChem BioAssay AID256 (DTP/NCI, 2004)
Several values for one entry are separate records, joined by “and”; a condition that tells them apart may be missing. Equal values may be shown once. Toxic doses and inconclusive results are not listed. Rule for the calls: active = survival T/C of 150% or more; inactive = T/C below 125% in these data.

System: CD2F1 mice, L1210 leukemia ip, survival T/C
Test: NCI In Vivo Anticancer Drug Screen. Data for tumor model L1210 Leukemia (intraperitoneal) in CD2F1 (CDF1) mice
Details: higher = longer survival
Outline: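 Vehicle-treated tumor-bearing mice served as controls (C) for compound-treated mice (T). Reported figure is T divided by C.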

[1] = endpoint: mean survival time, dose: 100.0 mg/kg/injection, schedule: Q01DX009 (ip), vehicle: saline with Tween-80
[2] = endpoint: mean survival time, dose: 200.0 mg/kg/injection, schedule: Q01DX009 (ip), vehicle: saline with Tween-80
[3] = endpoint: mean survival time, dose: 400.0 mg/kg/injection, schedule: Q01DX009 (ip), vehicle: saline with Tween-80
[4] = endpoint: mean survival time, dose: 12.5 mg/kg/injection, schedule: Q04DX003 (ip), vehicle: saline with Tween-80
[5] = endpoint: mean survival time, dose: 50.0 mg/kg/injection, schedule: Q04DX003 (ip), vehicle: saline with Tween-80
[6] = endpoint: mean survival time, dose: 100.0 mg/kg/injection, schedule: Q01DX001 (ip), vehicle: saline with Tween-80
[7] = endpoint: mean survival time, dose: 200.0 mg/kg/injection, schedule: Q01DX001 (ip), vehicle: saline with Tween-80
[8] = endpoint: mean survival time, dose: 25.0 mg/kg/injection, schedule: Q01DX009 (ip), vehicle: saline with Tween-80
[9] = endpoint: mean survival time, dose: 6.25 mg/kg/injection, schedule: Q04DX003 (ip), vehicle: saline with Tween-80
[10] = endpoint: mean survival time, dose: 12.5 mg/kg/injection, schedule: Q01DX009 (ip), vehicle: saline with Tween-80
[11] = endpoint: mean survival time, dose: 100.0 mg/kg/injection, schedule: Q04DX003 (ip), vehicle: saline with Tween-80
[12] = endpoint: mean survival time, dose: 200.0 mg/kg/injection, schedule: Q04DX003 (ip), vehicle: saline with Tween-80
[13] = endpoint: mean survival time, dose: 50.0 mg/kg/injection, schedule: Q01DX009 (ip), vehicle: saline with Tween-80
[14] = endpoint: mean survival time, dose: 400.0 mg/kg/injection, schedule: Q01DX001 (ip), vehicle: saline with Tween-80
[15] = endpoint: mean survival time, dose: 400.0 mg/kg/injection, schedule: Q04DX003 (ip), vehicle: saline with Tween-80

Measured: T/C

OCC1OC(n2cnc3c4ccccc4ccc32)C(O)C1O (configuration not stated)
inactive: endpoint: median survival time, dose: 10.0 mg/kg/injection, schedule: Q01DX005 (ip), vehicle: saline with Tween-80 110 % of control | endpoint: median survival time, dose: 16.25 mg/kg/injection, schedule: Q01DX005 (ip), vehicle: saline with Tween-80 98 % of control | endpoint: median survival time, dose: 20.0 mg/kg/injection, schedule: Q01DX005 (ip), vehicle: saline with Tween-80 103 % of control | endpoint: median survival time, dose: 32.5 mg/kg/injection, schedule: Q01DX005 (ip), vehicle: saline with Tween-80 100 % of control | endpoint: median survival time, dose: 40.0 mg/kg/injection, schedule: Q01DX005 (ip), vehicle: saline with Tween-80 97 % of control | endpoint: median survival time, dose: 65.0 mg/kg/injection, schedule: Q01DX005 (ip), vehicle: saline with Tween-80 107 % of control | endpoint: median survival time, dose: 80.0 mg/kg/injection, schedule: Q01DX005 (ip), vehicle: saline with Tween-80 103 % of control | endpoint: median survival time, dose: 130.0 mg/kg/injection, schedule: Q01DX005 (ip), vehicle: saline with Tween-80 97 % of control

CCOC(=O)C1C=CCCC1 (configuration not stated)
inactive: [1] 97 % of control | [2] 103 % of control | [3] 95 % of control

C[CH2][Sn]([c]1ccccc1)([c]1ccccc1)[c]1ccccc1
inactive: [4] 97 % of control | endpoint: mean survival time, dose: 25.0 mg/kg/injection, schedule: Q04DX003 (ip), vehicle: saline with Tween-80 100 % of control | [5] 94 % of control

C/C(=N\n1cc(-c2ccccc2)nc1N)c1ccccc1
inactive: endpoint: mean survival time, dose: 75.0 mg/kg/injection, schedule: Q01DX001 (ip), vehicle: saline 91 % of control | endpoint: mean survival time, dose: 150.0 mg/kg/injection, schedule: Q01DX001 (ip), vehicle: saline 97 % of control | endpoint: mean survival time, dose: 300.0 mg/kg/injection, schedule: Q01DX001 (ip), vehicle: saline 93 % of control

S=C(Cc1ccccc1)N1CCOCC1
inactive: [6] 98 % of control | [7] 102 % of control | endpoint: mean survival time, dose: 300.0 mg/kg/injection, schedule: Q01DX001 (ip), vehicle: saline with Tween-80 101 % of control

O=[Te]=O
inactive: endpoint: median survival time, dose: 3.12 mg/kg/injection, schedule: Q01DX009 (ip), vehicle: saline 100 % of control | endpoint: median survival time, dose: 6.25 mg/kg/injection, schedule: Q01DX009 (ip), vehicle: saline 98 % of control | endpoint: median survival time, dose: 10.0 mg/kg/injection, schedule: Q01DX009 (ip), vehicle: saline 101 % of control | endpoint: median survival time, dose: 12.5 mg/kg/injection, schedule: Q01DX009 (ip), vehicle: saline 100 % of control | endpoint: median survival time, dose: 20.0 mg/kg/injection, schedule: Q01DX009 (ip), vehicle: saline 97 % of control

Cc1cc(N(CC(C)Br)CC(C)Br)ccc1N=Nc1ccccc1C(=O)O (configuration not stated)
inactive: endpoint: mean survival time, dose: 3.13 mg/kg/injection, schedule: Q01DX009 (ip), vehicle: saline with Tween-80 105 % of control and 112 % of control | endpoint: mean survival time, dose: 6.25 mg/kg/injection, schedule: Q01DX009 (ip), vehicle: Klucel (hydroxypropylcellulose) (HPC) 106 % of control | endpoint: mean survival time, dose: 6.25 mg/kg/injection, schedule: Q01DX009 (ip), vehicle: saline with Tween-80 114 % of control and 117 % of control and 109 % of control | endpoint: mean survival time, dose: 25.0 mg/kg/injection, schedule: Q01DX009 (ip), vehicle: Klucel (hydroxypropylcellulose) (HPC) 119 % of control | [8] 86 % of control

COC1C(C)OC(OC2CC(C)(O)Cc3cc4c(c(O)c32)C(=O)c2c(O)cc3c(c2C4=O)OC2OC3(C)C(O)C(N(C)C)C2O)C(OC)C1(C)OC (configuration not stated)
inactive: endpoint: mean survival time, dose: 0.6 mg/kg/injection, schedule: Q01DX009 (ip), vehicle: other 115 % of control | endpoint: mean survival time, dose: 1.25 mg/kg/injection, schedule: Q04DX003 (ip), vehicle: other 101 % of control | endpoint: mean survival time, dose: 2.5 mg/kg/injection, schedule: Q04DX003 (ip), vehicle: other 109 % of control | endpoint: mean survival time, dose: 5.0 mg/kg/injection, schedule: Q04DX003 (ip), vehicle: other 112 % of control | endpoint: mean survival time, dose: 10.0 mg/kg/injection, schedule: Q04DX003 (ip), vehicle: other 109 % of control | endpoint: mean survival time, dose: 20.0 mg/kg/injection, schedule: Q04DX003 (ip), vehicle: other 102 % of control

CC[N+](CC)(CC)CC
inactive: endpoint: mean survival time, dose: 0.37 mg/kg/injection, schedule: Q01DX009 (ip), vehicle: saline with Tween-80 110 % of control | endpoint: mean survival time, dose: 0.75 mg/kg/injection, schedule: Q01DX009 (ip), vehicle: saline with Tween-80 96 % of control | endpoint: mean survival time, dose: 1.5 mg/kg/injection, schedule: Q01DX009 (ip), vehicle: saline with Tween-80 96 % of control | endpoint: mean survival time, dose: 3.0 mg/kg/injection, schedule: Q01DX009 (ip), vehicle: saline with Tween-80 100 % of control | endpoint: mean survival time, dose: 6.0 mg/kg/injection, schedule: Q01DX009 (ip), vehicle: saline with Tween-80 110 % of control | [9] 100 % of control | endpoint: mean survival time, dose: 12.0 mg/kg/injection, schedule: Q01DX009 (ip), vehicle: saline with Tween-80 96 % of control | [10] 88 % of control | [4] 100 % of control

NC(=S)Nc1ccccc1[N+](=O)[O-]
inactive: [5] 103 % of control and 104 % of control | [6] 101 % of control | endpoint: mean survival time, dose: 100.0 mg/kg/injection, schedule: Q04DX002 (ip), vehicle: saline with Tween-80 95 % of control | [11] 97 % of control and 101 % of control | [7] 102 % of control | endpoint: mean survival time, dose: 200.0 mg/kg/injection, schedule: Q04DX002 (ip), vehicle: saline with Tween-80 93 % of control | [12] 97 % of control and 111 % of control

O=C(C(=O)c1ccc(Cl)c(Cl)c1)c1ccc(Cl)c(Cl)c1
inactive: endpoint: mean survival time, dose: 100.0 mg/kg/injection, schedule: Q01DX009 (ip), vehicle: Klucel (hydroxypropylcellulose) (HPC) 90 % of control | endpoint: mean survival time, dose: 200.0 mg/kg/injection, schedule: Q01DX009 (ip), vehicle: Klucel (hydroxypropylcellulose) (HPC) 91 % of control | endpoint: mean survival time, dose: 400.0 mg/kg/injection, schedule: Q01DX009 (ip), vehicle: Klucel (hydroxypropylcellulose) (HPC) 96 % of control

CO[C@H]1C[C@@H]2CC[C@@H](C)[C@@](O)(O2)C(=O)C(=O)N2CCCC[C@H]2C(=O)O[C@H]([C@H](C)C[C@@H]2CC[C@@H](O)[C@H](OC)C2)CC(=O)[C@H](C)C=C(C)[C@@H](O)[C@@H](OC)C(=O)[C@H](C)C[C@H](C)/C=C/C=C/C=C1C
inactive: [10] 107 % of control | [8] 113 % of control | [13] 114 % of control | [6] 113 % of control | [1] 112 % of control | [7] 111 % of control | [2] 104 % of control | [14] 120 % of control

CC(CN1CCCCC1)C(=O)c1ccc(-c2ccccc2)cc1 (configuration not stated)
inactive: [8] 97 % of control | [13] 100 % of control | [1] 97 % of control

O=C1c2ccccc2C(=O)N1C1C=CC=CC=C1
inactive: [1] 95 % of control | [11] 104 % of control | [2] 93 % of control | [12] 97 % of control | [3] 96 % of control | [15] 97 % of control

O=C(Cc1ccc([N+](=O)[O-])cc1)c1ccc(O)cc1O
inactive: endpoint: mean survival time, dose: 100.0 mg/kg/injection, schedule: Q04DX003 (ip), vehicle: Klucel (hydroxypropylcellulose) (HPC) 96 % of control | endpoint: mean survival time, dose: 200.0 mg/kg/injection, schedule: Q04DX003 (ip), vehicle: Klucel (hydroxypropylcellulose) (HPC) 98 % of control | endpoint: mean survival time, dose: 400.0 mg/kg/injection, schedule: Q04DX003 (ip), vehicle: Klucel (hydroxypropylcellulose) (HPC) 103 % of control

Cc1ccc(Sc2cccc3c(C)c4cccc5c4c(c23)C[S+]5c2ccc(C)cc2)cc1 (configuration not stated)
inactive: [9] 98 % of control

COCCC1(CN2c3ccccc3Sc3ccccc32)CCN(C)C1 (configuration not stated)
inactive: endpoint: mean survival time, dose: 100.0 mg/kg/injection, schedule: Q04DX003 (ip), vehicle: saline 94 % of control | endpoint: mean survival time, dose: 200.0 mg/kg/injection, schedule: Q04DX003 (ip), vehicle: saline 96 % of control

OCc1ccc(Cl)c(Cl)c1
inactive: [11] 97 % of control | [12] 102 % of control | [15] 96 % of control

COc1cc(Cc2nccc3ccccc23)cc([N+](=O)[O-])c1OC
inactive: [6] 97 % of control | [7] 92 % of control | [14] 89 % of control

Cn1c(=O)cc(C=Nc2ccc(O)cc2)c2ccccc21
inactive: [1] 94 % of control | [2] 90 % of control | [3] 97 % of control

CC(=O)NCCSSCCCCS(=O)O
inactive: endpoint: median survival time, dose: 25.0 mg/kg/injection, schedule: Q01DX009 (ip), vehicle: suspension in saline 93 % of control | endpoint: median survival time, dose: 50.0 mg/kg/injection, schedule: Q01DX009 (ip), vehicle: suspension in saline 100 % of control | endpoint: median survival time, dose: 100.0 mg/kg/injection, schedule: Q01DX009 (ip), vehicle: suspension in saline 96 % of control | endpoint: median survival time, dose: 200.0 mg/kg/injection, schedule: Q01DX009 (ip), vehicle: suspension in saline 100 % of control | endpoint: median survival time, dose: 400.0 mg/kg/injection, schedule: Q01DX009 (ip), vehicle: suspension in saline 114 % of control
